# Counter-ions that a name gives are not always drawn.
# Target: T1, His-EBNA1 (DNA binding domain of EBNA1, amino acids 459-607) (Epstein-Barr virus, UniProt P03211)
# T1 construct: made in house; host or cells: E. coli
# Assay: Inhibition of 5′-biotin-oPL4624 binding to His-EBNA1 using Alpha Screen technology
# Settings: Alpha Screen Activity (IC50, inhibition of 5′-biotin-oPL4624 binding to His-EBNA1), 15 nM His-EBNA1, 0.2 nM bt-oPL4624, 2 hr room temperature
# Procedure, shortened: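 AlphaScreen signal (680 nm ex, 570 nm em) after a 2-h room-temperature incubation, normalized to no-EBNA1 (100% inhibition) and EBNA1 (0%) values and fit to a one-site curve. Final conditions: 15 nM His-EBNA1 (aa 459-607), 0.2 nM bt-oPL4624, Tris pH 7.2 buffer with 160 mM NaCl, compound 3.2 nM to 100 μM.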
# T1 sequence (P03211 459-607): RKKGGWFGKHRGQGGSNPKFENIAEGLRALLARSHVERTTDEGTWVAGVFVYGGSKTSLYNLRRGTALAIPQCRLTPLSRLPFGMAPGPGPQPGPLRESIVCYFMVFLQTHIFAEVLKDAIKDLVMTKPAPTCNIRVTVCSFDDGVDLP
row,Structure (SMILES),IC50 [µM]
1,"O=C(O)c1cccc(C#Cc2ccc(F)cc2)c1-c1ccc2cc[nH]c2c1 [Entry 228, 3-((4-Fluorophenyl)ethynyl)-2-(1H-indol-6-yl)benzoic acid]",1 to 10
2,"CC1(C)CN(c2cccc(C#Cc3cccc(C(=O)O)c3-n3cccc3)c2)C1=O [Entry 9, 3-{2-[3-(3,3-dimethyl-2-oxoazetidin-1-yl)phenyl]ethynyl}-2-(1H-pyrrol-1-yl)benzoic acid]",< 1
3,"NC(=O)c1cccc(C#Cc2cccc(C(=O)O)c2N)c1 [Entry 278, 2-amino-3-[2-(3-carbamoylphenyl)ethynyl]benzoic acid; trifluoroacetate salt]",10 to 100
4,O=C(O)c1cccc(C#Cc2cscn2)c1F [Entry 89],1 to 10
5,O=C(O)c1cccc(C#Cc2cscn2)c1-c1ccncc1 [Entry 172],10 to 100
6,"Cc1ccc(C)n1-c1c(C#Cc2cccc(C(N)=O)c2)cccc1C(=O)O [Entry 193, 3-(3-carbamoyl-phenylethynyl)-2-(2,5-dimethyl-pyrrol-1-yl)-benzoic acid]",1 to 10
7,"O=C(O)c1cccc(C#Cc2ccccc2)c1-n1cc(-c2cccnc2)nn1 [Entry 111, 3-(phenylethynyl)-2-(4-(pyridin-3-yl)-1H-1,2,3-triazol-1-yl)benzoic acid]",10 to 100
8,"O=C(O)c1cccc(C#Cc2ccccc2)c1-c1cncnc1 [Entry 100, 3-(2-phenylethynyl)-2-(pyrimidin-5-yl)benzoic acid]",100 to 1000
9,O=C(NS(=O)(=O)N1CCS(=O)(=O)CC1)c1cccc(C#Cc2ccccc2)c1-n1cccc1 [Entry 116],10 to 100
10,"O=C(O)c1cccc(C#Cc2ccn3ncnc3c2)c1-n1cccc1 [Entry 36, 2-(1H-pyrrol-1-yl)-3-(2-{[1,2,4]triazolo[1,5-a]pyridin-7-yl}ethynyl)benzoic acid]",< 1
11,"O=C(O)c1cccc(C#Cc2cccc(O)c2)c1-c1cnc2ccccc2c1 [Entry 140, 3-((3-hydroxyphenyl)ethynyl)-2-(quinolin-3-yl)benzoic acid]",1 to 10
12,"O=C(O)c1cccc(C#Cc2cccc(CO)c2)c1-n1cccc1 [Entry 39, 3-{2-[3-(hydroxymethyl)phenyl]ethynyl}-2-(1H-pyrrol-1-yl)benzoic acid]",< 1
13,"O=C(O)c1cccc(C#Cc2ccccc2)c1-c1ccc2cn[nH]c2c1 [Entry 201, 2-(1H-indazol-6-yl)-3-phenylethynyl-benzoic acid]",10 to 100
14,"O=C(O)c1cccc(C#Cc2ccccc2)c1-c1ccc2sccc2c1 [Entry 132, 2-(1-benzothiophen-5-yl)-3-(2-phenylethynyl)benzoic acid]",10 to 100
15,"O=C(O)c1cccc(C#Cc2cccc(O)c2)c1-c1cn(S(=O)(=O)c2ccccc2)c2ccccc12 [Entry 268, 2-[1-(benzenesulfonyl)-1H-indol-3-yl]-3-[2-(3-hydroxyphenyl)ethynyl]benzoic acid]",10 to 100
16,"O=C(O)c1cccc(C#Cc2ccncc2)c1-c1ccc2[nH]ccc2c1 [Entry 270, 2-(1H-indol-5-yl)-3-[2-(pyridin-4-yl)ethynyl]benzoic acid; trifluoroacetate salt]",10 to 100
17,"CS(=O)(=O)Nc1cccc(-c2c(C#Cc3ccccc3)cccc2C(=O)O)c1 [Entry 134, 2-(3-methanesulfonamidophenyl)-3-(2-phenylethynyl)benzoic acid]",1 to 10
18,"COc1ccc(C#Cc2cccc(C(=O)O)c2-c2ccc3[nH]c(C(=O)O)cc3c2)cc1 [Entry 255, 5-(2-carboxy-6-((4-methoxyphenyl)ethynyl)phenyl)-1H-indole-2-carboxylic acid]",10 to 100
19,"Nc1cccc(C#Cc2cccc(C(=O)O)c2-c2ccc3cc[nH]c3c2)c1 [Entry 233, 3-((3-aminophenyl)ethynyl)-2-(1H-indol-6-yl)benzoic acid]",< 1
20,"Cc1nn(C)c(C)c1-c1c(C#Cc2ccccc2)cccc1C(=O)O [Entry 190, 3-phenylethynyl-2-(1,3,5-trimethyl-1H-pyrazol-4-yl)-benzoic acid]",100 to 1000
21,"O=C(O)c1cccc(C#Cc2cncs2)c1-n1cccc1 [Entry 28, 2-(1H-pyrrol-1-yl)-3-[2-(1,3-thiazol-5-yl)ethynyl]benzoic acid]",10 to 100
22,"O=C(O)c1cccc(/C=C/c2ccccc2)c1-n1cccc1 [Entry 145, 3-[(E)-2-phenylethenyl]-2-(1H-pyrrol-1-yl)benzoic acid]",10 to 100
23,"CC(C)(O)c1cccc(C#Cc2cccc(C(=O)O)c2-n2cccc2)c1 [Entry 31, 3-{2-[3-(2-hydroxypropan-2-yl)phenyl]ethynyl}-2-(1H-pyrrol-1-yl)benzoic acid]",1 to 10
24,O=C(O)c1cccc(C#Cc2ccc3[nH]cnc3c2)c1-n1cccc1 [Entry 41],1 to 10
25,"O=C(O)c1cccc(C#Cc2ccccc2)c1-c1ccc(CO)cc1 [Entry 130, 2-[4-(hydroxymethyl)phenyl]-3-(2-phenylethynyl)benzoic acid]",10 to 100

row,Structure (SMILES),IC50 [µM]
1,"O=C(O)c1cccc(C#Cc2ccccc2CO)c1-n1cccc1 [Entry 19, 3-{2-[2-(hydroxymethyl)phenyl]ethynyl}-2-(1H-pyrrol-1-yl)benzoic acid]",< 1
2,"C(#Cc1ccc2[nH]ccc2c1)c1cccc(-c2nnn[nH]2)c1 [Entry 280, 5-[3-(1H-tetrazol-5-yl)-phenylethynyl]-1H-indole 5-(3-Ethynyl-phenyl)-1H-tetrazole]",1 to 10
3,"O=C(O)c1cccc(C#Cc2ccncc2)c1-c1cc[nH]n1 [Entry 187, 2-(1H-pyrazol-3-yl)-3-pyridin-4-ylethynyl-benzoic acid]",10 to 100
4,"CC(C)(N)C#Cc1cccc(C(=O)O)c1-n1cccc1 [Entry 48, 3-(3-amino-3-methylbut-1-yn-1-yl)-2-(1H-pyrrol-1-yl)benzoic acid]",100 to 1000
5,"O=C(O)c1cccc(C#CCCCO)c1-c1cnc2ccccc2c1 [Entry 141, 3-(5-hydroxypent-1-ynyl)-2-(quinolin-3-yl)benzoic acid]",10 to 100
6,"O=C(O)c1cccc(C#Cc2ccncc2)c1-c1c[nH]c2ccccc12 [Entry 174, 2-(1H-indol-3-yl)-3-[2-(pyridin-4-yl)ethynyl]benzoic acid]",1 to 10
7,"O=C(O)c1cc(Cl)cc(C#Cc2ccccc2)c1-n1cccc1 [Entry 59, 5-chloro-3-(2-phenylethynyl)-2-(1H-pyrrol-1-yl)benzoic acid]",10 to 100
8,"O=C(O)c1cccc(C#Cc2cccc(O)c2)c1-c1ccc2c(Cl)c[nH]c2c1 [Entry 221, 2-(3-chloro-1H-indol-6-yl)-3-((3-hydroxyphenyl)ethynyl)benzoic acid]",1 to 10
9,"Nc1c(C#Cc2cccc(CO)c2)cccc1C(=O)O [Entry 82, 2-amino-3-{2-[3-(hydroxymethyl)phenyl]ethynyl}benzoic acid]",1 to 10
10,"O=C(O)c1cccc(C#Cc2cn3ccnc3cn2)c1-n1cccc1 [Entry 56, 3-(2-{imidazo[1,2-a]pyrazin-6-yl}ethynyl)-2-(1H-pyrrol-1-yl)benzoic acid]",< 1
11,"Nc1c(C#Cc2ccc3cc[nH]c3c2)cccc1C(=O)O [Entry 80, 2-amino-3-[2-(1H-indol-6-yl)ethynyl]benzoic acid]",< 1
12,CN(C)S(=O)(=O)c1cccc(C#Cc2cccc(C(=O)O)c2F)c1 [Entry 224],10 to 100
13,"CN(CC#Cc1cccc(C(=O)O)c1-n1cccc1)Cc1ccccc1 [Entry 73, 3-{3-[benzyl(methyl)amino]prop-1-yn-1-yl}-2-(1H-pyrrol-1-yl)benzoic acid]",< 1
14,"COc1ccc(-c2c(C#Cc3ccncc3)cccc2C(=O)O)cc1O [Entry 185, 3′-hydroxy-4′-methoxy-6-pyridin-4-ylethynyl-biphenyl-2-carboxylic acid]",100 to 1000
15,"Cn1ccc2cc(-c3c(C#Cc4ccccc4)cccc3C(=O)O)ccc21 [Entry 133, 2-(1-methyl-1H-indol-5-yl)-3-(2-phenylethynyl)benzoic acid]",1 to 10
16,"O=C(O)c1cccc(C#CC2(O)CCCCC2)c1-n1cccc1 [Entry 54, 3-[2-(1-hydroxycyclohexyl)ethynyl]-2-(1H-pyrrol-1-yl)benzoic acid]",1 to 10
17,"O=C(O)c1cccc(C#Cc2cscn2)c1-n1cccc1 [Entry 29, 2-(1H-pyrrol-1-yl)-3-[2-(1,3-thiazol-4-yl)ethynyl]benzoic acid]",< 1
18,"NC(=O)c1ccc(C#Cc2cccc(C(=O)O)c2-c2ccc3cc[nH]c3c2)cc1 [Entry 211, 3-(4-carbamoyl-phenylethynyl)-2-(1H-indol-6-yl)-benzoic acid]",1 to 10
19,"O=C(O)c1cccc(C#Cc2ccncc2)c1-n1cncn1 [Entry 293, 3-pyridin-4-ylethynyl-2-[1,2,4]triazol-1-yl-benzoic acid]",10 to 100
20,"O=C(O)c1cccc(C#CCCCO)c1-n1cccc1 [Entry 66, 3-(5-hydroxypent-1-yn-1-yl)-2-(1H-pyrrol-1-yl)benzoic acid]",< 1
21,"CS(=O)(=O)Nc1cccc(C#Cc2cccc(C(=O)O)c2-n2cccc2)c1 [Entry 3, 3-[2-(3-methanesulfonamidophenyl)ethynyl]-2-(1H-pyrrol-1-yl)benzoic acid]",< 1
22,"O=C(O)c1cccc(C#Cc2ccc(F)cc2)c1-n1cccc1 [Entry 71, 3-[2-(4-fluorophenyl)ethynyl]-2-(1H-pyrrol-1-yl)benzoic acid]",1 to 10
23,"O=C(O)c1cccc(C#Cc2ccccn2)c1 [Entry 90, 3-[2-(pyridin-2-yl)ethynyl]benzoic acid]",100 to 1000
24,"Cn1cc(-c2c(C#Cc3ccccc3)cccc2C(=O)O)cn1 [Entry 101, 2-(1-methyl-1H-pyrazol-4-yl)-3-(2-phenylethynyl)benzoic acid]",1 to 10
25,"C(#Cc1ccc2cc[nH]c2c1)c1cccc(-c2nnn[nH]2)c1 [Entry 282, 6-[3-(1H-tetrazol-5-yl)-phenylethynyl]-1H-indole]",1 to 10

# — US10421718B2, “EBNA1 inhibitors and their method of use” (priority 2013, dated 2019)
